The text below walks through data of US20090169643A1, “Composition for Enhancing Immune Function” (priority 2006, published 2009).

For test [1], the system named is spleen cell suspension of immunocompetent cells. Briefly: Metabolic activity of mouse immunocompetent cells (WST-1 formazan, 48 h culture), Test Example 1. It is filed as cell-based, Balb/c mice. From the text:
Zinc was used in the form of zinc sulfate dissolved in distilled water. Spleens were aseptically harvested from ten-week-old female Balb/c mice, teased in RPMI1640 culture medium (GIBCO) supplemented with streptomycin and penicillin (SIGMA), and then passed through a #200 mesh screen to obtain spleen cell suspension of immunocompetent cells. After counting the cells in the spleen cell suspension with an automatic blood cell counter (Sysmex Corporation: type CDA-500), the suspension was adjusted to a concentration of 1×10^7 cells/ml in the above-mentioned RPMI1640 culture medium and plated in a volume of 50 μl per well into a 96-well culture plate. Concanavalin A (SIGMA), a cell-growth stimulating factor, was dissolved in the above-mentioned RPMI1640 culture medium, and 50 μl of the Concanavalin A solution was added to the cell suspension in each well to give a final concentration of 2.0 μg/ml. Additionally, zinc and nigerooligosaccharide were separately dissolved in the above-mentioned RPMI1640 culture medium. […] The formazan concentration was determined from absorbance at a measurement wavelength of 415 nm (reference wavelength of 630 nm) using a microplate reader (Corona Electric Co., Ltd.: Type MTP-32). The values in Table 1 represent absorbance at 415 nm as means±SD of triplicate wells. […]

The subject of test [2] is human peripheral mononuclear cells. The test can be described thus: Metabolic activity of human peripheral mononuclear cells (WST-1 formazan, 48 h culture), Test Example 3. It is filed as cell-based. As for the experimental part:
In the same manner as in Test Example 1, the synergic effect of nigerooligosaccharide and zinc on the metabolic activity of human peripheral mononuclear cells was assessed using nigerooligosaccharide and zinc. After 20 ml of blood collected from each healthy male adult was diluted 2-fold with calcium- and magnesium-free phosphate buffered saline (PBS), the diluted blood sample was overlaid onto 30 ml of a Ficoll-Paque PLUS (GE Healthcare Bio-Sciences) layer so gently as not to disturb the interface, followed by centrifugation at 400×g at 20° C. for 40 minutes. After the centrifugation, lymphocytes and monocytes present in the intermediate layer were carefully collected in a Pasteur pipette. The collected cell suspension was washed with 10-fold PBS twice. After the obtained mononuclear cells were counted with an automatic blood cell counter (Sysmex Corporation: type CDA-500), the suspension was adjusted to a concentration of 2×10^6 cells/ml in RPMI1640 culture medium supplemented with 10% fetal bovine serum, streptomycin and penicillin, and plated in a volume of 50 μl per well into a 96-well culture plate. […] The formazan concentration was determined from absorbance at a measurement wavelength of 415 nm (reference wavelength of 630 nm) using a microplate reader (Corona Electric Co., Ltd.: Type MTP-32).
The values in Table 3 represent absorbance at 415 nm as means±SD of triplicate wells. […]

Test [3] concerns spleen cell suspension of immunocompetent cells. Briefly: Metabolic activity of mouse immunocompetent cells during prolonged culture (WST-1 formazan, 144 h), Test Example 2. It is filed as cell-based, Balb/c mice. The conditions noted are these: for absorbance at 415 nm (formazan, index of metabolic activity): nigerooligosaccharide 0 ng/ml, Concanavalin A 0.4 μl/ml, 144 hours, mean of triplicate to hexylicate wells. As for the experimental part:
In this Test Example, the effect of the combined use of nigerooligosaccharide and zinc on the metabolic activity of immunocompetent cells during prolonged culture was assessed using nigerooligosaccharide and zinc in the same manner as Test Example 1. Spleens were aseptically harvested from ten-week-old female Balb/c mice, teased in RPMI1640 culture medium (GIBCO) supplemented with streptomycin and penicillin (SIGMA), and then passed through a #200 mesh screen to obtain spleen cell suspension of immunocompetent cells. After counting the cells in the spleen cell suspension with an automatic blood cell counter (Sysmex Corporation: type CDA-500), the suspension was adjusted to a concentration of 1×10^7 cells/ml in the above-mentioned RPMI1640 culture medium and plated in a volume of 50 μl per well into a 96-well culture plate. Concanavalin A (SIGMA), a cell-growth stimulating factor, was dissolved in the above-mentioned RPMI1640 culture medium, and 50 μl of the Concanavalin A solution was added to the cell suspension in each well to give a final concentration of 0.4 μl/ml. Additionally, zinc and nigerooligosaccharide were separately dissolved in the above-mentioned RPMI1640 culture medium. 50 μl of the zinc solution was added to each well to give a final concentration of 0, 1 or 2 ng/ml, and similarly, 50 μl of the nigerooligosaccharide solution was added to each well to give a final concentration of 0 or 1000 ng/ml. Thus-prepared immunocompetent cells were cultured in an incubator with 5% CO2 at 37° C. for 144 hours. […] The formazan concentration was determined from absorbance at a measurement wavelength of 415 nm (reference wavelength of 630 nm) using a microplate reader (Corona Electric Co., Ltd.: Type MTP-32).
The values in Table 2 represent absorbance at 415 nm as means of triplicate to hexylicate wells.
In general terms: Tetrazolium assays rely on reduction of a dye to a coloured formazan, in cell work by metabolically active cells.

`O=S(=O)([O-])[O-].[Zn+2]` [zinc, zinc sulfate]: the “metabolic activity of mouse immunocompetent cells (in words)” value in test [1] (summary of Table 1, 48 hours culture) is on record as “hardly raised the metabolic activity”. For the same molecule, the “absorbance at 415 nm (formazan, index of metabolic activity)” value in test [1] (zinc 1 ng/ml, nigerooligosaccharide 0 ng/ml, Concanavalin A 2.0 μg/ml, 48 hours, mean±SD of triplicate wells) came out at 0.815 ± 0.013; in test [2] (zinc 10 ng/ml, nigerooligosaccharide 0 μg/ml, Concanavalin A 2.0 μg/ml, 48 hours, mean±SD of triplicate wells), 0.348 ± 0.003; in test [3] (zinc 1 ng/ml), 0.793; in test [3] (zinc 2 ng/ml), 0.786. Besides, in test [2] (summary of Table 3, proportion 1:1000), the “metabolic activity of human immunocompetent cells (in words)” value is given as “hardly raised the metabolic activity”. Further, in test [3] (summary of Table 2, 144 hours culture, proportion 1:1000 or 1:500), the “metabolic activity of mouse immunocompetent cells during prolonged culture (in words)” value was “hardly raised the metabolic activity”.
